In patent publication US12091387B2, “Quinoline cGAS antagonist compounds” (IMMUNESENSOR THERAPEUTICS, INC., priority 2022, dated 2024):

Legend:
[1] = test system: cGAS activity in reporter THP1 cell line; test: Cellular assay to measure cGAS activity (ISRE-Gaussia luciferase reporter THP1 cells, ISD transfection); type: cell-based; conditions: Homo sapiens, THP-1, 2 μg/mL ISD transfection, 16 hours, luciferase luminescence
Description: Cellular assay to measure cGAS activity: Reporter THP1 cell line harboring a gene encoding Gaussia Luciferase under the control of 5 tandem repeats of interferon-stimulated response elements (ISRE) fused to an ISG54 minimal promoter was used to test inhibition of cGAS activity by synthetic compounds in human cells. These cells were plated on 96-well plates at 0.3×10^6/well and incubated with serial dilutions of compounds or DMSO for 5 min, followed by transfection of 2 μg/mL of ISD (Interferon Stimulatory DNA, a 45 bp DNA oligo) or mock transfected using lipofectamine 2000 (Life Technology) method, according to manufacturer's instructions. 16 hours later, 15 μL of the media from each well was transferred to a new plate, 50 μL of solution containing 50 mM Hepes-NaOH, pH 6.5, 50 mM NaCl, 10 mM EDTA, 1 μM of coeleanterazine is added to each well and luminescence is measured immediately. Fold increase in luminescence compared to mock transfection was plotted against concentrations of each compound, and IC50 is calculated using Graphpad. To evaluate the specificity of a compound, the same procedure is performed except that cells are transfected with 2 μg/mL […] or infected with Sendai Virus (SeV) at 50 Unit/mL, which are known to activate the RIG-I-MAVS pathway. A specific inhibitory compound should inhibit interferon induction by DNA but have minimal effect on poly(I:C) or Sendai virus induced interferon reporter gene expression.
The letter codes for cGAS IC50 include: A (<2 μM); B (2-10 μM); C (>10 μM).

[2] = target: T1, recombinant human cGAS (aa147-522) (Homo sapiens, UniProt Q8N884); test: In vitro inhibition assay of cGAS activity (KinaseGlo, ATP consumption); type: biochemical; conditions: Herring testis DNA, 6.6 μM ATP, 0.1 mM GTP, 37° C. 20 minutes
T1 construct: recombinant human cGAS (aa147-522); His6-SUMO (N, cleaved yes); made in house; host or cells: E. coli BL21/pLys
T1 sequence (Q8N884 147-522): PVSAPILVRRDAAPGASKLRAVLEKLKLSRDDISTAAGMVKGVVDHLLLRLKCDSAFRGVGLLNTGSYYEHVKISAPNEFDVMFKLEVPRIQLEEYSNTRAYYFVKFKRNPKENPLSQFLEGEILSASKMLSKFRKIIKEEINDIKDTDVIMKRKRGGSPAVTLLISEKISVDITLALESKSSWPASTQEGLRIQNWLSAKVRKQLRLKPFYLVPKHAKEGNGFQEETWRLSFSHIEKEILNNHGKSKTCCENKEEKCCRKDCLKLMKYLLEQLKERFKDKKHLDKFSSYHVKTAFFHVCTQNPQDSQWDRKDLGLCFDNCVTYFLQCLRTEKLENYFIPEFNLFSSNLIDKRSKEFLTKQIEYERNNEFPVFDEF
Description: Expression and Purification of Recombinant cGAS Protein: cDNA encoding full-length or amino acids 147-520 of human cGAS was inserted into a modified pET28a vector containing an in-frame His6-SUMO tag. The E. coli strain BL21/pLys harboring the plasmid was induced with 0.5 mM IPTG at 18° C. overnight. His6-SUMO tag was removed by a SUMO protease digestion following purification of the His6-SUMO-cGAS as described previously (Sun et al, 2013, Science 339, 786).
In vitro inhibition assay of cGAS activity: A 60 μL mixture containing 20 mM Tris-Cl, pH 7.5, 5 mM MgCl2, 0.2 mg/mL BSA, 0.01 mg/mL Herring testis DNA, 6.6 μM ATP, 0.1 mM GTP, 1.5 μg/mL of recombinant human cGAS (aa147-522) and serial dilutions of a test compound in DMSO is added to a 96-well plate and incubated at 37° C. for 20 minutes. At the end of reaction, 40 μL of KinaseGlo Max (Promega) is added and chemiluminescence was measured with a luminometer. Inhibitory effect of a compound is evaluated by plotting percentage of ATP consumption against logarithm of compound concentrations. IC50 value is calculated using GraphPad Prism 8 (GraphPad Software, Inc.).
The letter codes for cGAS IC50 include: A (<2 μM); B (2-30 μM); C (>30 μM).

| IC50 [1] | IC50 [2] | Structure (SMILES) |
| --- | --- | --- |
| < 2000 nM | < 2000 nM | O=C(O)CCOC[C@@H]1CCCN1c1cc(-n2ccnn2)c2ccc(Cl)c(Cl)c2n1 [I-900, (S)-3-((1-(7,8-dichloro-4-(1H-1,2,3-triazol-1-yl)quinolin-2-yl)pyrrolidin-2-yl)methoxy)propanoic acid] |
| > 10000 nM | > 30000 nM | O=C(O)CCOC[C@@H]1CCCN1c1cc(-c2cccc(CO)c2)c2ccc(Cl)c(Cl)c2n1 [I-909] |
| < 2000 nM | < 2000 nM | O=C(O)CCOC[C@@H]1CCCN1c1cc(-n2cncn2)c2c(Cl)c(Cl)ccc2n1 [I-932] |
| > 10000 nM | > 30000 nM | O=C(O)CCOC[C@@H]1CCCN1c1cc(-c2ccsc2)c2ccc(Cl)c(Cl)c2n1 [I-905] |
| > 10000 nM | > 30000 nM | O=C(O)CCOC[C@@H]1CCCN1c1cc(-c2cccc(O)c2)c2ccc(Cl)c(Cl)c2n1 [I-910] |
| < 2000 nM | < 2000 nM | O=C(O)CCOC[C@@H]1C[C@H](C(F)(F)F)CN1c1cc(-n2cncn2)c2cc(Cl)c(Br)cc2n1 [I-929] |
| < 2000 nM | < 2000 nM | O=C(O)CCOC[C@H]1CC2(CC2)CN1c1cc(-n2cncn2)c2cc(Br)c(Cl)c(Cl)c2n1 [I-926] |
| < 2000 nM | < 2000 nM | O=C(O)CCOC[C@@H]1CCCN1c1cc(-n2cncn2)c2cc(Cl)c(Br)cc2n1 [I-893] |
| < 2000 nM | < 2000 nM | O=C(O)CCOC[C@@H]1CCCN1c1cc(-n2cncn2)c2cc(Cl)c(Cl)cc2n1 [I-931] |
| > 10000 nM | > 30000 nM | O=C(O)CCOC[C@@H]1CCCN1c1cc(C2=CCNC2)c2ccc(Cl)c(Cl)c2n1 [I-922] |
| > 10000 nM | 2000 to 30000 nM | O=C(O)CCOC[C@@H]1CCCN1c1cc(C2=CNCC2)c2ccc(Cl)c(Cl)c2n1 [I-923] |
| > 10000 nM | < 2000 nM | O=C(O)[C@@H]1[C@@H](O)CCN1c1cc(-n2cncn2)c2cc(Cl)c(Br)cc2n1 [I-934] |
| < 2000 nM | < 2000 nM | O=C(O)CCOC[C@@H]1CCN(c2cc(-n3cncn3)c3cc(Br)c(Cl)c(Cl)c3n2)C1 [I-937] |
| < 2000 nM | < 2000 nM | O=C(O)CCOC[C@H]1CCCN1c1cc(-n2cncn2)c2cc(Br)c(Cl)c(Cl)c2n1 [I-925] |
| > 10000 nM | > 30000 nM | COc1ccc(-c2cc(N3CCC[C@H]3COCCC(=O)O)nc3c(Cl)c(Cl)ccc23)cc1 [I-911] |
| 2000 to 10000 nM | < 2000 nM | O=C(O)CCOC[C@@H]1CCCN1c1cc(-c2cnoc2)c2ccc(Cl)c(Cl)c2n1 [I-902] |
| > 10000 nM | > 30000 nM | O=C(O)CCOC[C@@H]1CCCN1c1cc(-c2ccncc2)c2ccc(Cl)c(Cl)c2n1 [I-916] |
| < 2000 nM | < 2000 nM | O=C(O)CCOC[C@@H]1CCCN1c1cc(-c2cnsc2)c2ccc(Cl)c(Cl)c2n1 [I-906] |
| < 2000 nM | < 2000 nM | O=C(O)CCOC[C@@H]1CC2(CC2)CN1c1cc(-n2cncn2)c2cc(Cl)c(Br)cc2n1 [I-896] |
| > 10000 nM | > 30000 nM | O=C(O)CCOC[C@@H]1CCCN1c1cc(-c2ccnnc2)c2ccc(Cl)c(Cl)c2n1 [I-918] |
| < 2000 nM | < 2000 nM | O=C(O)CCOC[C@@H]1CCCN1c1cc(-n2cncn2)c2ccc(Cl)c(Cl)c2n1 [I-892] |
| > 10000 nM | < 2000 nM | O=C(O)CCOC[C@@H]1CCCN1c1cc(-c2cncnc2)c2ccc(Cl)c(Cl)c2n1 [I-917] |
| < 2000 nM | < 2000 nM | Cc1c(Br)ccc2c(-n3cncn3)cc(N3CCC[C@H]3COCCC(=O)O)nc12 [I-894] |
| < 2000 nM | < 2000 nM | COC(=O)[C@@H]1[C@@H](O)CCN1c1cc(-n2cncn2)c2cc(Br)c(Cl)c(Cl)c2n1 [I-933] |

| IC50 [1] | IC50 [2] | Structure (SMILES) |
| --- | --- | --- |
| > 10000 nM | 2000 to 30000 nM | O=C(O)CCOC[C@H]1CCCN1c1cc(-n2cncn2)c2cc(Cl)c(Br)cc2n1 [I-924] |
| > 10000 nM | 2000 to 30000 nM | O=C(O)CCOC[C@@H]1CCCN1c1cc(-c2cccc(F)c2)c2ccc(Cl)c(Cl)c2n1 [I-914] |
| > 10000 nM | > 30000 nM | O=C(O)CCOC[C@@H]1CCCN1c1cc(N2CCNCC2)c2ccc(Cl)c(Cl)c2n1 [I-920] |
| < 2000 nM | < 2000 nM | O=C(O)CCOC[C@@H]1CC2(CC2)CN1c1cc(-n2cncn2)c2cc(Br)c(Cl)c(Cl)c2n1 [I-897] |
| < 2000 nM | < 2000 nM | O=C(O)CCOC[C@@H]1C[C@@H]2C[C@@H]2N1c1cc(-n2cncn2)c2cc(Br)c(Cl)c(Cl)c2n1 [I-930] |
| > 10000 nM | > 30000 nM | COc1cccc(-c2cc(N3CCC[C@H]3COCCC(=O)O)nc3c(Cl)c(Cl)ccc23)c1 [I-912] |
| < 2000 nM | < 2000 nM | O=C(O)CCOC[C@@H]1CCCN1c1cc(-c2cnn[nH]2)c2ccc(Cl)c(Cl)c2n1 [I-899, (S)-3-((1-(7,8-dichloro-4-(1H-1,2,3-triazol-4-yl)quinolin-2-yl)pyrrolidin-2-yl)methoxy)propanoic acid] |
| < 2000 nM | < 2000 nM | CCN(CCOCCC(=O)O)c1cc(-n2cncn2)c2cc(Br)c(Cl)c(Cl)c2n1 [I-938] |
| > 10000 nM | > 30000 nM | O=C(O)CCOC[C@@H]1CCCN1c1cc(-c2cocn2)c2ccc(Cl)c(Cl)c2n1 [I-904] |
| < 2000 nM | < 2000 nM | O=C(O)CCOC[C@@H]1CCCN1c1cc(-c2cncs2)c2ccc(Cl)c(Cl)c2n1 [I-907] |
| > 10000 nM | 2000 to 30000 nM | O=C(O)CCOC[C@@H]1CCCN1c1cc(-c2ncn[nH]2)c2ccc(Br)cc2n1 [I-901, (S)-3-((1-(7-bromo-4-(4H-1,2,4-triazol-3-yl)quinolin-2-yl)pyrrolidin-2-yl)methoxy)propanoic acid] |
| < 2000 nM | < 2000 nM | O=C(O)CCOC[C@@H]1CCN(c2cc(-n3cncn3)c3cc(Cl)c(Br)cc3n2)C1 [I-935] |
| < 2000 nM | < 2000 nM | O=C(O)CCOC[C@@H]1CCCN1c1cc(-n2cncn2)c2cc(Br)c(Cl)c(Cl)c2n1 [I-895] |
| > 10000 nM | > 30000 nM | O=C(O)CCOC[C@@H]1CCCN1c1cc(-c2cccnc2)c2ccc(Cl)c(Cl)c2n1 [I-915] |
| > 10000 nM | > 30000 nM | CN1CCN(c2cc(N3CCC[C@H]3COCCC(=O)O)nc3c(Cl)c(Cl)ccc23)CC1 [I-921] |
| < 2000 nM | < 2000 nM | COC(=O)[C@@H]1[C@@H](O)CCN1c1cc(-n2cncn2)c2cc(Cl)c(Br)cc2n1 [I-936] |
| < 2000 nM | < 2000 nM | O=C(O)CCOC[C@@H]1CC2(CC2)CN1c1cc(-n2cncn2)c2ccc(Cl)c(Cl)c2n1 [I-898] |
| > 10000 nM | > 30000 nM | O=C(O)CCOC[C@@H]1CCCN1c1cc(-c2ccc(F)cc2)c2ccc(Cl)c(Cl)c2n1 [I-913] |
| < 2000 nM | < 2000 nM | C[C@H]1C[C@@H](COCCC(=O)O)N(c2cc(-n3cncn3)c3cc(Cl)c(Br)cc3n2)C1 [I-928] |
| > 10000 nM | > 30000 nM | O=C(O)CCOC[C@@H]1CCCN1c1cc(-c2cscn2)c2ccc(Cl)c(Cl)c2n1 [I-908] |
| < 2000 nM | < 2000 nM | O=C(O)CCOC[C@@H]1C[C@@H]2C[C@@H]2N1c1cc(-n2cncn2)c2cc(Cl)c(Br)cc2n1 [I-927] |
| 2000 to 10000 nM | < 2000 nM | O=C(O)CCOC[C@@H]1CCCN1c1cc(-c2cnco2)c2ccc(Br)cc2n1 [I-903, (S)-3-((1-(7-bromo-4-(oxazol-5-yl)quinolin-2-yl)pyrrolidin-2-yl)methoxy)propanoic acid] |
| > 10000 nM | > 30000 nM | O=C(O)CCOC[C@@H]1CCCN1c1cc(N2CCOCC2)c2ccc(Cl)c(Cl)c2n1 [I-919] |
